One block for each molecule: values may come before it.
Experiments:
human OCT3 = biological target: T1, human OCT3 (Homo sapiens, UniProt O75751); experiment: SLC transporter substrate assay, HEK293-OCT3-LV vs control HEK293-Mock-LV cells; assay type: in vitro ADME; details: 3 min
T1 construct: host or cells: HEK293-OCT3-LV
T1 sequence (O75751 1-556): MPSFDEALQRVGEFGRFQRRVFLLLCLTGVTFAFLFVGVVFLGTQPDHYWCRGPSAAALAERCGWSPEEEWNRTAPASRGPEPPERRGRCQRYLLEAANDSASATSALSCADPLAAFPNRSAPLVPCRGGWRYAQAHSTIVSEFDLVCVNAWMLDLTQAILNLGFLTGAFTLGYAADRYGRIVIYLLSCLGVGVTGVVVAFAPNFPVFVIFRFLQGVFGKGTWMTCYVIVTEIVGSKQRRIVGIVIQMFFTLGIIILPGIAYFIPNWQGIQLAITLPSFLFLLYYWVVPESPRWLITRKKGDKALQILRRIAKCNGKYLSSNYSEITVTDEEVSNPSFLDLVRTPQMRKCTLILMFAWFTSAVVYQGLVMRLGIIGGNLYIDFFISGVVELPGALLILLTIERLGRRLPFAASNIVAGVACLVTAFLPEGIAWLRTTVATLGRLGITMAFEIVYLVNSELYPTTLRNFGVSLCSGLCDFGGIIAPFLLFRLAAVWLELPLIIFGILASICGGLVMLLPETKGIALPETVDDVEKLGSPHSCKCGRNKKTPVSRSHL
Experimental: (§1) SI4. Results of transporter substrate assays (SLC)
(§2) Human Incubation Positive control substrate/ Control Special Incubation Assay […]
(Cell line) at 37°C [min] [h] […]
into transfected and control cells.
(§3) Fold accumulation = UPTTRP
(§4) PSMA-617 in SLC transporters.
(§5) NA: not analyzed. Test substances were considered as substrates in case of fold accumulation values > 2 combined with inhibition values higher than 50%.
4.7 Organic cation transporter OCT3
(HEK293-OCT3-LV) and control cells (HEK293-Mock-LV) applying 2- and 20-minute incubation periods, measured in SLC transporter substrate assay. […] Concentrations are nominal.
Table S16: ([α,β-3H]Nal)Lu-PSMA-617-accumulation in OCT3 transporter-expressing (HEK293-OCT3-LV) and control […]
(§6) Conditions Accumulation (pmol/mg protein)
Compound Nominal In OCT3 Fold concentration Minutes transporter In control Active accumulation
(§7) [µM] expressing cells transport
(§8) Positive control (accumulation in cpm)
MPP +: 1-methyl -4-phenylpyridinium.

human OAT1 = biological target: T2, human OAT1 (Homo sapiens, UniProt Q4U2R8); experiment: SLC transporter substrate assay, HEK293-OAT1-LV vs control HEK293-Mock-B-LV cells; details: 2 min
T2 sequence (Q4U2R8 1-563): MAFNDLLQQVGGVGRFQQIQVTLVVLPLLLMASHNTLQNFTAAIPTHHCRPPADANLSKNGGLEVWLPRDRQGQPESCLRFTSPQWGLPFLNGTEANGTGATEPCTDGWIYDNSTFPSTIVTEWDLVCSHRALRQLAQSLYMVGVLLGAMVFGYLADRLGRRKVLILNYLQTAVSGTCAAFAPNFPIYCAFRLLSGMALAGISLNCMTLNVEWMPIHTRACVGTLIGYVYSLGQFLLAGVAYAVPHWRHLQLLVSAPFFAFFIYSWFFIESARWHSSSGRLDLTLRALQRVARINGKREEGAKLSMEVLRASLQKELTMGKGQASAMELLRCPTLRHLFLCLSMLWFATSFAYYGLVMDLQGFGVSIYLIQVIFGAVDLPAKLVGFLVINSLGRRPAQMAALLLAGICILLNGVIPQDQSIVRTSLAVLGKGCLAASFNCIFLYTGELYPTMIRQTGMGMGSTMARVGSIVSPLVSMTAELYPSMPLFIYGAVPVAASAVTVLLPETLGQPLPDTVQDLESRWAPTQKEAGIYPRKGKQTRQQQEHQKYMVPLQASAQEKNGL

human OAT2v1 = biological target: T3, human OAT2v1 (Homo sapiens, UniProt Q9Y694); experiment: SLC transporter substrate assay, HEK293-OAT2v1-LV vs control HEK293-Mock-LV cells; assay type: in vitro ADME; details: 1 min
T3 construct: host or cells: HEK293-OAT2v1-LV
T3 sequence (Q9Y694 1-546 isoform Q9Y694-2): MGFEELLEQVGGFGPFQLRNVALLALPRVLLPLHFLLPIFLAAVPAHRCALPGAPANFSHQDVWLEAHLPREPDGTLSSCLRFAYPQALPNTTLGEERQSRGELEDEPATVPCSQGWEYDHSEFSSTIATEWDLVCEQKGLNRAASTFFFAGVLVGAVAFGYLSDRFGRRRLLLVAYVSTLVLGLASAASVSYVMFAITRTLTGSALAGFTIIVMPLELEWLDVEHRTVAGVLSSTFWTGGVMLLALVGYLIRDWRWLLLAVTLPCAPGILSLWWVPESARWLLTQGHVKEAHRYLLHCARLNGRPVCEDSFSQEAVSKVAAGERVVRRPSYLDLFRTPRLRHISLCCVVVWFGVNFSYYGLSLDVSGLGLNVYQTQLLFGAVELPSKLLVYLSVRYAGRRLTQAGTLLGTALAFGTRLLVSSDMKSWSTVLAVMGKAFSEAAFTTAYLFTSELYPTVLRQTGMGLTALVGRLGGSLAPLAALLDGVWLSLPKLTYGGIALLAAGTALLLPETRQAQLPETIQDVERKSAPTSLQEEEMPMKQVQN
Experimental: as §1, §2
(Cell line) at 37°C [min] [h]
OAT2v1 cGMP (1.5) / Mock-B- Poly-D-lysine
as §3, §4, §5
4.4 Organic anion transporter OAT2v1 […]
expressed as mean (n=3) ± SD. Concentrations are nominal.
Table S13: ([α,β-3H]Nal)Lu-PSMA-617-accumulation in OAT2v1 transporter expressing (HEK293-OAT2v1-LV) and […]
as §6
Compound Nominal In OAT2v1 Fold concentration Minutes transporter In control Active accumulation
as §7, §8

[1] = positive control: MPP+ 0.02 µM + Quinidine 1000 µM
[2] = positive control: Tenofovir 5 µM + Probenecid 300 µM
[3] = positive control: Tenofovir 5 µM
[4] = positive control: cGMP 1.82 µM + Indomethacin 300 µM

Structure (SMILES): C[n+]1ccc(-c2ccccc2)cc1 [MPP+, 1-Methyl-4-phenylpyridin-1-ium, reference compound]
- Accumulation in OCT3 transporter expressing cells (human OCT3; [1]): 1429.667 cpm
- Accumulation in control cells (human OCT3; [1]): 233.000 cpm
- Accumulation, active transport (human OCT3; [1]): 1196.667 cpm
- Fold accumulation (human OCT3; [1]): 6.14
- Accumulation in OCT3 transporter expressing cells (human OCT3; positive control: MPP+ 0.02 µM): 10728.333 cpm
- Accumulation in control cells (human OCT3; positive control: MPP+ 0.02 µM): 629.333 cpm
- Accumulation, active transport (human OCT3; positive control: MPP+ 0.02 µM): 10099.000 cpm
- Fold accumulation (human OCT3; positive control: MPP+ 0.02 µM): 17.05

- Accumulation in OAT1 transporter expressing cells (human OAT1; [2]): 372.67 cpm
- Accumulation in control cells (human OAT1; [2]): 77.00 cpm
- Accumulation, active transport (human OAT1; [2]): 295.67 cpm
- Fold accumulation (human OAT1; [2]): 4.84
- Accumulation in OAT1 transporter expressing cells (human OAT1; [3]): 7739.67 cpm
- Accumulation in control cells (human OAT1; [3]): 85.00 cpm
- Accumulation, active transport (human OAT1; [3]): 7654.67 cpm
- Fold accumulation (human OAT1; [3]): 91.05
Structure (SMILES): C[C@H](Cn1cnc2c(N)ncnc21)OCP(=O)(O)O [Tenofovir, tenofovir, reference compound]

Structure (SMILES): Nc1nc2c(ncn2[C@@H]2O[C@@H]3COP(=O)(O)O[C@H]3[C@H]2O)c(=O)[nH]1 [cGMP, guanosine 3′,5′-cyclic monophosphate, reference compound]
- Accumulation in OAT2v1 transporter expressing cells (human OAT2v1; [4]): 551.67 cpm
- Accumulation in control cells (human OAT2v1; [4]): 67.67 cpm
- Accumulation, active transport (human OAT2v1; [4]): 484.00 cpm
- Fold accumulation (human OAT2v1; [4]): 8.15
- Accumulation in OAT2v1 transporter expressing cells (human OAT2v1; positive control: cGMP 1.82 µM): 9207.33 cpm
- Accumulation in control cells (human OAT2v1; positive control: cGMP 1.82 µM): 75.00 cpm
- Accumulation, active transport (human OAT2v1; positive control: cGMP 1.82 µM): 9132.33 cpm
- Fold accumulation (human OAT2v1; positive control: cGMP 1.82 µM): 122.76

Source: PMC11053447, “Human ABC and SLC Transporters: The Culprit Responsible for Unspecific PSMA-617 Uptake?” (Pharmaceuticals, 2024)
